Source: US12528805B2, “Solid forms of emetine” (Acer Therapeutics, Inc., priority 2020, dated 2026)
Where a name gives a salt, the structure may show the parent alone.

Legend:
[1] = Solubility screening by solvent addition technique (approximate solubility); format: physicochemical; settings: thermodynamic from solid, stirred at 50° C.
Method: Approximate solubility values for amorphous Compound I dihydrochloride in 24 solvent systems was estimated by a solvent addition technique (Table 5).
The following procedure was used for the study: • Approximately 20 mg of material was weighed out into 24×2 mL push-cap vials. • Each solvent/solvent mixture was added to the appropriate vial in 5 volume aliquots (100 μL) until either no more solvent could be added or until the material dissolved. • In between additions, the experiments were stirred at 50° C. • If 2000 μL of solvent was added without dissolution of the material, solubility was calculated to be below this point. • Experiments were stirred at 50° C. for 1.5-5 h and then cooled at 0.1° C./min to 5° C. and stirred at 5° C. for about 10 h. • Solids (residual and recrystallized) were isolated by centrifugation (0.22 μm nylon filter) and analyzed by XRPD. • Anti-solvent addition (ASA) at 20° C. was carried out on solutions, followed by temperature cycling between 50° C.-5° C. (1 h hold, 0.1° C./min cool, 0.25° C./min ramp) for 20 h. • ASA at 5° C. was carried out on experiments which remained solutions, which were then stirred at 5° C. for 3 h. • Solids were isolated by centrifugation (0.22 μm nylon filter) and analyzed by XRPD; experiments which remained solutions were evaporated at ambient temperature (about 20° C.) under vacuum. • All isolated material was dried under vacuum at about 30° C. for about 19-23 h then re-analyzed by XRPD.
For comparison purposes, the approximate solubility of Compound I dihydrochloride Form 1 was estimated in water, using the same procedure, in solubility screening Experiment 25.

[2] = Solid form stability on storage (XRPD re-analysis); format: physicochemical; settings: stored at 40° C./75% RH for 22 h
Method: The solids were dried under vacuum at ambient temperature (about 23° C.) for 17 h. The solids on the XRPD plate were stored at 40° C./75% RH for 22 h then re-analyzed. Amorphous and a mixture of Compound I dihydrochloride Form 2 and Form 6 were obtained (Table 7).
The solids were isolated by filtration after a total of 27.5 h at 5° C. and washed with 0.6 mL of cold acetone or 3×0.6 mL of cold heptane. The solids were dried under vacuum at ambient temperature (about 23° C.) for 17 h. The solids on the XRPD plate were stored at 40° C./75% RH for 22 h then re-analyzed by XRPD. Results, which are summarized in Table 8, show mixtures of Compound I dihydrochloride Forms 5 and 6, 5, 2 and 1, and 2 were obtained.
1.0 mL of water was added to approximately 300 mg of Compound I dihydrochloride Form 1. The resulting mixture was magnetically stirred at 50° C. over about 15 min, then stirred at 50° C. for 0.25 h. The solution was polish filtered (0.45 μm PTFE filter) into a 2 mL push-cap vial and then stirred at 50° C. for 0.25 h, prior to cooling to 5° C. at 0.1° C./min. After 62 h at 5° C., the experiment was sub-sampled and the solid was analyzed by XRPD. The material on the XRPD plate was dried under vacuum at 35° C. under a stream of wet nitrogen (20-38% RH) for about 9 h and then re-analyzed by XRPD. The material on the XRPD plate was stored at 25° C./60% RH for 22 h and then re-analyzed by XRPD. After a total of 87 h at 5° C., solids were isolated by centrifugation (0.22 μm nylon filter) and analyzed by XRPD. The solids were air-dried at ambient temperature (about 22° C.) for 24 h.
Small-scale crystallization Experiment 7 was sub-sampled prior to ASA and after ASA was complete, with solids isolated by centrifugation (0.22 μm nylon filter) and analyzed by XRPD.
Approximately 10 g of Compound I dihydrochloride Form 1 was dissolved in 67 mL of ethanol:water 99:1 v/v at about 60° C. (initial concentration: 150 mg/mL). Polish filtration was carried out (0.2 μm PTFE filter). The solution was transferred to a 250 mL vessel at 60° C. and stirred at 50° C. (solution temperature) and 300 rpm for about 5 min. The solution was seeded with about 100 mg (1 wt. %) of Compound I dihydrochloride Form 2, isolated from small-scale crystallization Experiments 12 and 13, from example 4 above. The seed dissolved rapidly. Anti-solvent addition of 10 mL of heptane (1 volume) was carried out at 2 vol/h (Heptane content of 13%). The solution was re-seeded with a further 100 mg (1 wt. %) of Form 2, isolated from small-scale crystallization Experiment 12. The seed persisted and a slurry formed. The slurry was stirred at 50° C. for 1 h and then anti-solvent addition of 131 mL of heptane at 1.5 vol/h was carried out, to reach 60% heptane. […] An additional 2 volumes of ethanol:water 99:1 v/v was added at the beginning of the ASA to mobilize the slurry. Once ASA was complete, the slurry was cooled to 5° C. at 0.1° C./min. The experiment was sub-sampled after about 2 h at 5° C. The slurry was thick but mixing. After 3.5 h at 5° C., an additional 3.6 mL of water was added to increase the water content to 2% (ethanol:water:heptane ratio of 39:2:59 v/v/v). The experiment was sub-sampled again after 2 h at 5° C. with additional water. After a total of 10 h at 5° C., solids were isolated by filtration and washed with 2 volumes of cold (5° C.) ethanol:heptane 40:60 v/v. The solids were filtered and dried under vacuum at ambient temperature (about 21° C.) for 14.5 h, then analyzed by XRPD.

**Q.** What does the source list for CC[C@H]1CN2CCc3cc(OC)c(OC)cc3[C@@H]2C[C@@H]1C[C@H]1NCCc2cc(OC)c(OC)cc21 [Amorphous Compound I dihydrochloride]?
**A.** solubility ([1]; aqueous with cosolvent or surfactant or cyclodextrin, acetone:water 50:50 v/v): > 200 mg/mL; solubility ([1]; aqueous with cosolvent or surfactant or cyclodextrin, ethanol:water 25:75 v/v): > 200 mg/mL; solubility ([1]; aqueous with cosolvent or surfactant or cyclodextrin, methanol:water 50:50 v/v): > 200 mg/mL; solubility ([1]; organic solvent or mixture, 1-propanol): > 200 mg/mL; solubility ([1]; organic solvent or mixture, 2-methyl THF): < 10 mg/mL; solubility ([1]; organic solvent or mixture, 2-propanol): > 200 mg/mL; solubility ([1]; organic solvent or mixture, 2-propanol:water 95:5 v/v): > 200 mg/mL; solubility ([1]; organic solvent or mixture, N-methyl-2-pyrrolidone): > 200 mg/mL; solubility ([1]; organic solvent or mixture, THF): < 10 mg/mL; solubility ([1]; organic solvent or mixture, acetone): < 10 mg/mL; solubility ([1]; organic solvent or mixture, anisole): < 10 mg/mL; solubility ([1]; organic solvent or mixture, dimethylformamide): > 200 mg/mL; solubility ([1]; organic solvent or mixture, dimethylsulfoxide): > 200 mg/mL; solubility ([1]; organic solvent or mixture, ethanol): > 200 mg/mL; solubility ([1]; organic solvent or mixture, ethanol:water 90:10 v/v): > 200 mg/mL; solubility ([1]; organic solvent or mixture, ethyl acetate): < 10 mg/mL; solubility ([1]; organic solvent or mixture, heptane): < 10 mg/mL; solubility ([1]; organic solvent or mixture, isopropyl acetate): < 10 mg/mL; solubility ([1]; organic solvent or mixture, methanol): > 200 mg/mL; solubility ([1]; organic solvent or mixture, methylethyl ketone): < 10 mg/mL; solubility ([1]; organic solvent or mixture, methylisobutyl ketone): < 10 mg/mL; solubility ([1]; organic solvent or mixture, tBME): < 10 mg/mL; solubility ([1]; organic solvent or mixture, toluene): < 10 mg/mL; solubility ([1]; water): > 200 mg/mL; Solid form by XRPD after storage [2]: amorphous Compound I dihydrochloride was obtained
